Source: patent US9169254B2, “Spiroimidazolone derivative” (Chugai Seiyaku Kabushiki Kaisha, priority 2009, dated 2015)

target: T1, human PTH1 receptor (Homo sapiens, UniProt Q03431); test: In vitro cAMP signal activity in HKRK-B7 cells (LLC-PK1 cells overexpressing the human PTH1 receptor); type: cell-based; conditions: HKRK-B7 cells; compound at 1×10^−3 M; cAMP produced as percentage of that produced by hPTH(1-34) at 100 nM
T1 sequence (Q03431 27-593): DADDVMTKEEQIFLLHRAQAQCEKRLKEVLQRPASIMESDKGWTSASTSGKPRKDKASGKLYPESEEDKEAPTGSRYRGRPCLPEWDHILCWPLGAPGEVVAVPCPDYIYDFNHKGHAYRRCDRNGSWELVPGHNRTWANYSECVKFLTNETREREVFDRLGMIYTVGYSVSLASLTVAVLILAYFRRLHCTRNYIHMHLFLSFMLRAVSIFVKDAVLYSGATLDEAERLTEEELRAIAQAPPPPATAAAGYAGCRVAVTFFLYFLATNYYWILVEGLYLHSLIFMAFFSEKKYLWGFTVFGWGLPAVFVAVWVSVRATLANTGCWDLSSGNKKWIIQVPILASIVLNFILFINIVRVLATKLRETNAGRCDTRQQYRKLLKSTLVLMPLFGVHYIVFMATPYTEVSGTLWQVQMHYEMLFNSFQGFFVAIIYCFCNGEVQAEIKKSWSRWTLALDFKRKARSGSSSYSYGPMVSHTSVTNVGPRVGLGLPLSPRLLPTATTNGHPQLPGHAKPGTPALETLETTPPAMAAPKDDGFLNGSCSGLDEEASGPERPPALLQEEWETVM

Structure (SMILES) | cAMP production activity (%)
Cc1cc(N(C)C(N)=O)cc(C)c1CCS(=O)(=O)N1CCC2(CC1)N=C(CCCCCCCCCCCN)NC2=O [Compound 1366, 1-(4-{2-[2-(11-Amino-undecyl)-4-oxo-1,3,8-triaza-spiro[4.5]dec-1-ene-8-sulfonyl]-ethyl}-3,5-dimethyl-phenyl)-1-methyl-urea] | 103%
CCOc1c(N(C)c2cc(C)c(CCS(=O)(=O)N3CCC4(CC3)N=C([C@H]3CC[C@H](C)CC3)NC4=O)c(C)c2)c(=O)c1=O [Compound 1367, 3-[(3,5-Dimethyl-4-{2-[2-(4-methyl-cyclohexyl)-4-oxo-1,3,8-triaza-spiro[4.5]dec-1-ene-8-sulfonyl]-ethyl}-phenyl)-methyl-amino]-4-ethoxy-cyclobut-3-ene-1,2-dione] | 58%
Cc1cc(N(C)c2c(N)c(=O)c2=O)cc(C)c1CCS(=O)(=O)N1CCC2(CC1)N=C([C@H]1CC[C@H](C)CC1)NC2=O [Compound 1368, 3-Amino-4-[(3,5-dimethyl-4-{2-[2-(4-methyl-cyclohexyl)-4-oxo-1,3,8-triaza-spiro[4.5]dec-1-ene-8-sulfonyl]-ethyl}-phenyl)-methyl-amino]-cyclobut-3-ene-1,2-dione] | 83%
Cc1cc(N(C)c2c(N(C)C)c(=O)c2=O)cc(C)c1CCS(=O)(=O)N1CCC2(CC1)N=C([C@H]1CC[C@H](C)CC1)NC2=O [Compound 1369, 3-Dimethylamino-4-[(3,5-dimethyl-4-{2-[2-(4-methyl-cyclohexyl)-4-oxo-1,3,8-triaza-spiro[4.5]dec-1-ene-8-sulfonyl]-ethyl}-phenyl)-methyl-amino]-cyclobut-3-ene-1,2-dione] | 30%
Cc1cc(N(C)C(N)=O)cc(C)c1CCS(=O)(=O)N1CCC2(CC1)N=C(C1CCC(C)CC1)N/C2=N/O (stereo not drawn) [Compound 1371, 1-(4-{2-[4-[(E)-Hydroxyimino]-2-(4-methyl-cyclohexyl)-1,3,8-triaza-spiro[4.5]dec-1-ene-8-sulfonyl]-ethyl}-3,5-dimethyl-phenyl)-1-methyl-urea] | 84%
Cc1ccccc1CNS(=O)(=O)N1CCC2(CC1)N=C(C1CCC(C)CC1)NC2=O (stereo not drawn) [Compound 1372, 2-(4-Methyl-cyclohexyl)-4-oxo-1,3,8-triaza-spiro[4.5]dec-1-ene-8-sulfonic acid 2-methyl-benzylamide] | 36%
O=C1NC(C2CCCCC2)=NC12CCN(S(=O)(=O)CC(O)c1cccc3c1ccn3C[C@H](O)CO)CC2 (stereo partly drawn) [Compound 1374, 2-Cyclohexyl-8-{2-[1-((S)-2,3-dihydroxy-propyl)-1H-indol-4-yl]-2-hydroxy-ethanesulfonyl}-1,3,8-triaza-spiro[4.5]dec-1-en-4-one] | 33%
Cc1ccccc1C(=O)CS(=O)(=O)N1CCC2(CC1)N=C(C1CCCCC1)NC2=O [Compound 1375, 2-Cyclohexyl-8-(2-oxo-2-o-tolyl-ethanesulfonyl)-1,3,8-triaza-spiro[4.5]dec-1-en-4-one] | 23%
Cc1ccccc1C#CS(=O)(=O)N1CCC2(CC1)N=C(C1CCCCC1)NC2=O [Compound 1376, 2-Cyclohexyl-8-(2-o-tolyl-ethynesulfonyl)-1,3,8-triaza-spiro[4.5]dec-1-en-4-one] | 42%
O=C1NC(C2CCCCC2)=NC12CCN(S(=O)(=O)C#Cc1cccc3[nH]ccc13)CC2 [Compound 1377, 2-Cyclohexyl-8-[2-(1H-indol-4-yl)-ethynesulfonyl]-1,3,8-triaza-spiro[4.5]dec-1-en-4-one] | 35%
Cc1cc(C(=O)N(C)C)cc(C)c1CCS(=O)(=O)N1CCC2(CC1)N=C(C1CCC(CCC(F)(F)F)CC1)NC2=O (stereo not drawn) [Compound 1378, 3,5,N,N-Tetramethyl-4-(2-{4-oxo-2-[4-(3,3,3-trifluoro-propyl)-cyclohexyl]-1,3,8-triaza-spiro[4.5]dec-1-ene-8-sulfonyl}-ethyl)-benzamide] | 116%
Cc1cc(C(=O)N(C)C)cc(C)c1CCS(=O)(=O)N1CCC2(CC1)N=C(C1CCC(C)CC1)NC2=O (stereo not drawn) [Compound 1379, 3,5,N,N-tetramethyl-4-{2-[2-(4-methyl-cyclohexyl)-4-oxo-1,3,8-triaza-spiro[4.5]dec-1-ene-8-sulfonyl]-ethyl}-benzamide] | 86%
Cc1cc(C(=O)N2CCC(C)(O)CC2)cc(C)c1CCS(=O)(=O)N1CCC2(CC1)N=C(C1CCC(CCC(F)(F)F)CC1)NC2=O (stereo not drawn) [Compound 1380, 8-{2-[4-(4-hydroxy-4-methyl-piperidine-1-carbonyl)-2,6-dimethyl-phenyl]-ethanesulfonyl}-2-[4-(3,3,3-trifluoro-propyl)-cyclohexyl]-1,3,8-triaza-spiro[4.5]dec-1-en-4-one] | 109%
Cc1cc(C(=O)N2CCC(O)(CF)CC2)cc(C)c1CCS(=O)(=O)N1CCC2(CC1)N=C(C1CCC(CCC(F)(F)F)CC1)NC2=O (stereo not drawn) [Compound 1381, 8-{2-[4-(4-fluoromethyl-4-hydroxy-piperidine-1-carbonyl)-2,6-dimethyl-phenyl]-ethanesulfonyl}-2-[4-(3,3,3-trifluoro-propyl)-cyclohexyl]-1,3,8-triaza-spiro[4.5]dec-1-en-4-one] | 102%
Cc1cc(C(=O)N2CCC(C)(O)CC2)cc(C)c1CCS(=O)(=O)N1CCC2(CC1)N=C(C1CCC(C)CC1)NC2=O (stereo not drawn) [Compound 1382, 8-{2-[4-(4-hydroxy-4-methyl-piperidine-1-carbonyl)-2,6-dimethyl-phenyl]-ethanesulfonyl}-2-(4-methyl-cyclohexyl)-1,3,8-triaza-spiro[4.5]dec-1-en-4-one] | 93%
Cc1cc(C(=O)N2CCC(O)(CF)CC2)cc(C)c1CCS(=O)(=O)N1CCC2(CC1)N=C(C1CCC(C)CC1)NC2=O (stereo not drawn) [Compound 1383, 8-{2-[4-(4-fluoromethyl-4-hydroxy-piperidine-1-carbonyl)-2,6-dimethyl-phenyl]-ethanesulfonyl}-2-(4-methyl-cyclohexyl)-1,3,8-triaza-spiro[4.5]dec-1-en-4-one] | 96%
Cc1cc(C(=O)N2CCC(OC[C@H](O)CO)CC2)cc(C)c1CCS(=O)(=O)N1CCC2(CC1)N=C(C1CCC(CCC(F)(F)F)CC1)NC2=O (stereo partly drawn) [Compound 1384, 8-(2-{4-[4-((R)-2,3-dihydroxy-propoxy)-piperidine-1-carbonyl]-2,6-dimethyl-phenyl}-ethanesulfonyl)-2-[4-(3,3,3-trifluoro-propyl)-cyclohexyl]-1,3,8-triaza-spiro[4.5]dec-1-en-4-one] | 78%
Cc1cc(C(=O)NN)cc(C)c1CCS(=O)(=O)N1CCC2(CC1)N=C(C1CCC(CCC(F)(F)F)CC1)NC2=O (stereo not drawn) [Compound 1385, 3,5-dimethyl-4-(2-{4-oxo-2-[4-(3,3,3-trifluoro-propyl)-cyclohexyl]-1,3,8-triaza-spiro[4.5]dec-1-ene-8-sulfonyl}-ethyl)-benzoic acid hydrazide] | 92%
Cc1cc(C(=O)N2CCCN2)cc(C)c1CCS(=O)(=O)N1CCC2(CC1)N=C(C1CCC(CCC(F)(F)F)CC1)NC2=O (stereo not drawn) [Compound 1386, 8-{2-[2,6-dimethyl-4-(pyrazolidine-1-carbonyl)-phenyl]-ethanesulfonyl}-2-[4-(3,3,3-trifluoro-propyl)-cyclohexyl]-1,3,8-triaza-spiro[4.5]dec-1-en-4-one] | 92%
Cc1cc(CC(=O)N(C)C)ccc1CCS(=O)(=O)N1CCC2(CC1)N=C(C1CCC(C)CC1)NC2=O (stereo not drawn) [Compound 1387, N,N-dimethyl-2-(3-methyl-4-{2-[2-(4-methyl-cyclohexyl)-4-oxo-1,3,8-triaza-spiro[4.5]dec-1-ene-8-sulfonyl]-ethyl}-phenyl)-acetamide] | 68%
CONC(=O)Cc1ccc(CCS(=O)(=O)N2CCC3(CC2)N=C(C2CCC(C)CC2)NC3=O)c(C)c1 (stereo not drawn) [Compound 1388, N-methoxy-2-(3-methyl-4-{2-[2-(4-methyl-cyclohexyl)-4-oxo-1,3,8-triaza-spiro[4.5]dec-1-ene-8-sulfonyl]-ethyl}-phenyl)-acetamide] | 59%
Cc1cc(CN(C)C(N)=O)cc(C)c1CCS(=O)(=O)N1CCC2(CC1)N=C(C1CCC(CCC(F)(F)F)CC1)NC2=O (stereo not drawn) [Compound 1389, 1-[3,5-dimethyl-4-(2-{4-oxo-2-[4-(3,3,3-trifluoro-propyl)-cyclohexyl]-1,3,8-triaza-spiro[4.5]dec-1-ene-8-sulfonyl}-ethyl)-benzyl]-1-methyl-urea] | 67%
Cc1cc(CN(C)C(N)=O)cc(C)c1CCS(=O)(=O)N1CCC2(CC1)N=C(C1CCC(C)CC1)NC2=O (stereo not drawn) [Compound 1390, 1-(3,5-dimethyl-4-{2-[2-(4-methyl-cyclohexyl)-4-oxo-1,3,8-triaza-spiro[4.5]dec-1-ene-8-sulfonyl]-ethyl}-benzyl)-1-methyl-urea] | 69%

same assay, conditions: HKRK-B7 cells; compound at 1×10^−3 M; cAMP produced as percentage of that produced by hPTH(1-34) at 100 nM; 0.1 µM

Structure (SMILES) | cAMP production activity (%)
C#C[C@H]1CC[C@@H](C2=NC3(CCN(S(=O)(=O)CCc4ccc(NC(C)=O)cc4C)CC3)C(=O)N2)CC1 [Compound 1370, N-(4-{2-[2-(4-Ethynyl-cyclohexyl)-4-oxo-1,3,8-triaza-spiro[4.5]dec-1-ene-8-sulfonyl]-ethyl}-3-methyl-phenyl)-acetamide] | 64%
